From paper PMC8276662, “Synergy of alanine and gentamicin to reduce nitric oxide for elevating killing efficacy to antibiotic-resistant Vibrio alginolyticus” (Virulence, 2021)

Molecular target: T1, CysJ (rCysJ; NOS-like protein) (Vibrio alginolyticus, UniProt A0A2I3CBL6)
T1 construct: dimer by blue native PAGE
T1 sequence (A0A2I3CBL6 1-623): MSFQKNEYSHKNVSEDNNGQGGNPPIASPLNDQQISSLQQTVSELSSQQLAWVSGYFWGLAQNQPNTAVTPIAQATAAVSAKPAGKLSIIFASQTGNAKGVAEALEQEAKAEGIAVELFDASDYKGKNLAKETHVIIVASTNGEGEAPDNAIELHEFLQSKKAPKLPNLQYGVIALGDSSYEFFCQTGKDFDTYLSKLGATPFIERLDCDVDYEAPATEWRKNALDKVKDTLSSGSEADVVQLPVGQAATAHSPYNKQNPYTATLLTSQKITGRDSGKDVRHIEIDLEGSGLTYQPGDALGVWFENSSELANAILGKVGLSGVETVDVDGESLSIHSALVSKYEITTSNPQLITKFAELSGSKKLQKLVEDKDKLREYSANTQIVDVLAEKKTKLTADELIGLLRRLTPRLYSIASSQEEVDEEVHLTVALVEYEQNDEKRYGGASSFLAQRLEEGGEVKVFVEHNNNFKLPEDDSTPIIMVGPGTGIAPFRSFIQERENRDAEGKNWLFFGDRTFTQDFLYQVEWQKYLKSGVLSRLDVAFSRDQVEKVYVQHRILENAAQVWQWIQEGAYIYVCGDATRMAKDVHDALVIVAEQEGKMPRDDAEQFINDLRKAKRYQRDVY
Test: colorimetric nitric oxide synthase activity kit, A530
Type: biochemical
Conditions: 0.5 mM L-NMMA, preincubated 30 C 2 h (as described for lysate proteins); assay 37 C 15 min; mode not stated

## CNC(=N)NCCC[C@H](N)C(=O)O [L-NMMA]
  activity of NOS was reduced: When L-NMMA was used, activity of NOS was reduced (Figure 8b).
